From patent US9708314B2, “Heterocyclic amide compound” (NISSAN CHEMICAL INDUSTRIES, LTD., priority 2013, dated 2017)

Experiments:
Assay type in all cases: in vivo
[1] = test system: Echinochloa crus-galli var. crus-galli; test: Test Example 3: herbicidal effect by application to foliage (Wagner pot, water depth 0.1-0.5 cm); details: Nineteenth Table; application to foliage; application herbicide amount 320 g/ha
Method in brief: (§1)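 Visual 0–5 rating of herbicidal ratio, taken 3 weeks after foliar spray of a diluted emulsion formulation at rates expressed as g/ha. Plants had been sown in alluvial soil under 0.1–0.5 cm water and grown 14 days at 25–30 °C under glass before application.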

Leptochloa chinensis = test: as above; details: Nineteenth Table; application to foliage; application herbicide amount 320 g/ha
Method in brief: as §1

Cyperus difformis = test: as above; details: Nineteenth Table; application to foliage; application herbicide amount 320 g/ha
Method in brief: as §1

Monochoria vaginalis = test: Test Example 1: herbicidal activity, application before weed generation in submerged conditions; details: Application herbicide amount 320 g/ha; Seventeenth Table
Method in brief: (§2)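 Rating, on a six-step scale from almost no effect (0) to almost completely withered (5), was made three weeks after pre-emergence treatment. Treatment was surface application to flooded pots at g/ha rates, with plants kept at 25° C. to 30° C.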

Scirpus juncoides = test: as above; details: Application herbicide amount 320 g/ha; Seventeenth Table
Method in brief: as §2

[2] = test system: Echinochloa oryzacola Vasing.; test: as above; details: Application herbicide amount 320 g/ha; Seventeenth Table
Method in brief: as §2

Row | Structure (SMILES) | H (herbicidal effect grade) [1] | D (herbicidal effect grade) (Leptochloa chinensis) | E (herbicidal effect grade) (Cyperus difformis) | C: Monochoria vaginalis (herbicidal effect grade) (Monochoria vaginalis) | B: Scirpus juncoides (herbicidal effect grade) (Scirpus juncoides) | A: Echinochloa oryzicola Vasing. (herbicidal effect grade) [2]
1 | CC(C)c1nnc2c(C(=O)Nc3nnnn3Cc3ccc(Cl)cc3)ccc(C(F)(F)F)n12 [2-093] | 1 (Herbicidal ratio of 5% or more and less than 20%) | 2 (Herbicidal ratio of 20% or more and less than 40%) | 5 (Herbicidal ratio of 90% or more (almost completely withered)) | 4 (Herbicidal ratio of 70% or more and less than 90%) | 5 (Herbicidal ratio of 90% or more (almost completely withered)) | 5 (Herbicidal ratio of 90% or more (almost completely withered))
2 | CC(C)CSc1nnc2c(C(=O)Nc3nnnn3C)ccc(C(F)(F)F)n12 [2-071] | 4 (Herbicidal ratio of 70% or more and less than 90%) | 5 (Herbicidal ratio of 90% or more (almost completely withered)) | 5 (Herbicidal ratio of 90% or more (almost completely withered)) | 5 (Herbicidal ratio of 90% or more (almost completely withered)) | 5 (Herbicidal ratio of 90% or more (almost completely withered)) | 5 (Herbicidal ratio of 90% or more (almost completely withered))
3 | Cn1nnnc1NC(=O)c1ccc(C(F)(F)F)n2c(SCC3CC3)nnc12 [2-084] | 5 (Herbicidal ratio of 90% or more (almost completely withered)) | 5 (Herbicidal ratio of 90% or more (almost completely withered)) | 5 (Herbicidal ratio of 90% or more (almost completely withered)) | 4 (Herbicidal ratio of 70% or more and less than 90%) | 5 (Herbicidal ratio of 90% or more (almost completely withered)) | 5 (Herbicidal ratio of 90% or more (almost completely withered))
4 | COc1cccc(-c2nnc3c(C(=O)Nc4nnnn4C)ccc(C(F)(F)F)n23)c1 [2-044] | 5 (Herbicidal ratio of 90% or more (almost completely withered)) | 5 (Herbicidal ratio of 90% or more (almost completely withered)) | 5 (Herbicidal ratio of 90% or more (almost completely withered)) | 5 (Herbicidal ratio of 90% or more (almost completely withered)) | 5 (Herbicidal ratio of 90% or more (almost completely withered)) | 5 (Herbicidal ratio of 90% or more (almost completely withered))
5 | Cn1nnnc1NC(=O)c1ccc(C(F)(F)F)n2cnnc12 [2-001] | 4 (Herbicidal ratio of 70% or more and less than 90%) | 4 (Herbicidal ratio of 70% or more and less than 90%) | 3 (Herbicidal ratio of 40% or more and less than 70%) | 4 (Herbicidal ratio of 70% or more and less than 90%) | 3 (Herbicidal ratio of 40% or more and less than 70%) | 2 (Herbicidal ratio of 20% or more and less than 40%)
6 | COCCn1nnnc1NC(=O)c1ccc(C(F)(F)F)n2c(C(C)C)nnc12 [2-041] | 5 (Herbicidal ratio of 90% or more (almost completely withered)) | 5 (Herbicidal ratio of 90% or more (almost completely withered)) | 5 (Herbicidal ratio of 90% or more (almost completely withered)) | 4 (Herbicidal ratio of 70% or more and less than 90%) | 5 (Herbicidal ratio of 90% or more (almost completely withered)) | 5 (Herbicidal ratio of 90% or more (almost completely withered))
7 | CCCS(=O)(=O)c1nnc2c(C(=O)Nc3nnnn3C)ccc(C(F)(F)F)n12 [2-070] | 5 (Herbicidal ratio of 90% or more (almost completely withered)) | 5 (Herbicidal ratio of 90% or more (almost completely withered)) | 5 (Herbicidal ratio of 90% or more (almost completely withered)) | 5 (Herbicidal ratio of 90% or more (almost completely withered)) | 5 (Herbicidal ratio of 90% or more (almost completely withered)) | 5 (Herbicidal ratio of 90% or more (almost completely withered))
8 | CC(C)c1nnc2c(C(=O)Nc3nnnn3C)ccc(C(F)(F)C(F)(F)F)n12 [2-049] | 5 (Herbicidal ratio of 90% or more (almost completely withered)) | 5 (Herbicidal ratio of 90% or more (almost completely withered)) | 5 (Herbicidal ratio of 90% or more (almost completely withered)) | 4 (Herbicidal ratio of 70% or more and less than 90%) | 5 (Herbicidal ratio of 90% or more (almost completely withered)) | 5 (Herbicidal ratio of 90% or more (almost completely withered))
9 | Cc1nnc2c(C(=O)Nc3nnnn3C)ccc(C(F)(F)F)n12 [2-002] | 5 (Herbicidal ratio of 90% or more (almost completely withered)) | 4 (Herbicidal ratio of 70% or more and less than 90%) | 2 (Herbicidal ratio of 20% or more and less than 40%) | 3 (Herbicidal ratio of 40% or more and less than 70%) | 3 (Herbicidal ratio of 40% or more and less than 70%) | 2 (Herbicidal ratio of 20% or more and less than 40%)
10 | COCCNc1nnc2c(C(=O)Nc3nnnn3C)ccc(C(F)(F)F)n12 [2-074] | 5 (Herbicidal ratio of 90% or more (almost completely withered)) | 5 (Herbicidal ratio of 90% or more (almost completely withered)) | 4 (Herbicidal ratio of 70% or more and less than 90%) | 3 (Herbicidal ratio of 40% or more and less than 70%) | 4 (Herbicidal ratio of 70% or more and less than 90%) | 4 (Herbicidal ratio of 70% or more and less than 90%)
11 | Cn1nnnc1NC(=O)c1ccc(C(F)(F)F)n2c(C[S+]([O-])CC(F)(F)F)nnc12 (stereo not drawn) [2-035] | 5 (Herbicidal ratio of 90% or more (almost completely withered)) | 5 (Herbicidal ratio of 90% or more (almost completely withered)) | 4 (Herbicidal ratio of 70% or more and less than 90%) | 3 (Herbicidal ratio of 40% or more and less than 70%) | 3 (Herbicidal ratio of 40% or more and less than 70%) | 4 (Herbicidal ratio of 70% or more and less than 90%)
12 | CN(C)c1nnc2c(C(=O)Nc3nnnn3C)ccc(C(F)(F)F)n12 [2-051] | 5 (Herbicidal ratio of 90% or more (almost completely withered)) | 5 (Herbicidal ratio of 90% or more (almost completely withered)) | 5 (Herbicidal ratio of 90% or more (almost completely withered)) | 5 (Herbicidal ratio of 90% or more (almost completely withered)) | 5 (Herbicidal ratio of 90% or more (almost completely withered)) | 5 (Herbicidal ratio of 90% or more (almost completely withered))
13 | Cn1nnnc1NC(=O)c1ccc(C(F)(F)F)n2c(CC[S+](C)[O-])nnc12 (stereo not drawn) [2-058] | 5 (Herbicidal ratio of 90% or more (almost completely withered)) | 5 (Herbicidal ratio of 90% or more (almost completely withered)) | 5 (Herbicidal ratio of 90% or more (almost completely withered)) | 5 (Herbicidal ratio of 90% or more (almost completely withered)) | 4 (Herbicidal ratio of 70% or more and less than 90%) | 4 (Herbicidal ratio of 70% or more and less than 90%)
